# Experimental data taken from PMC10891214, “Effects of food and ethnicity on the pharmacokinetics of venadaparib, a next-generation PARP inhibitor, in healthy Korean, Caucasian, and Chinese male subjects” (Investigational New Drugs, 2023).
# How the values were obtained:
# [1] = parameters: method as in data on file (NCT03317743); conditions: ref data on file (NCT03317743), cited from earlier work
# cytochrome P450 3A4 = tested on: cytochrome P450 3A4; parameters: method as in data on file; conditions: in vitro phenotyping study; ref data on file; cited from earlier work
# [2] = in vivo
# Procedure: (§1) Safety was assessed in all subjects who received the study drug at least once throughout the study based on adverse event (AE) monitoring, physical examinations, vital signs, 12-lead electrocardiograms (ECGs), and clinical laboratory tests.
# (§2) To support the evaluation of the relationship between concentration and QT/corrected QT (QTc) interval effects in the early stage of the clinical development of venadaparib, triplicate ECG tests were conducted in the middle of the study [22]. A triplicate ECG test was conducted in three Caucasian and five Chinese subjects after the protocol amendment. […] Fridericia’s corrected QT interval (QTcF) was collected, along with the existing ventricular rate, PR interval, QRS duration, QT interval, and QTcB. Triplicate ECGs were measured three times at intervals of 30 s to 2 min at each time point after at least 5 min of resting, and the median value of the three measurements was considered a representative value. QTcF and QTcB were calculated using the following population-derived correction equations: QTcF = QT/RR^0.33 and QTcB = QT/RR^0.5 [22].
# [3] = Safety assessment (adverse events, vital signs, 12-lead ECGs) after a single administration of venadaparib 80 mg; conditions: for TEAEs: number of events / TEAEs: number of subjects: Koreans and Caucasians
# Procedure: as §1, §2
# [4] = tested on: cancer cell lines with BRCA mutations; parameters: method as in PMID 36808277; conditions: cited from earlier work
# PARP3 = tested on: PARP3; parameters: method as in PMID 36808277; conditions: cited from earlier work
# [5] = Caucasian, fasted state (N = 12)
smiles,measurement,setting,value
O=C(c1cc(Cc2n[nH]c(=O)c3ccccc23)ccc1F)N1CC(CNC2CC2)C1 [venadaparib],Mean elimination half-life (t1/2),"[1]; Korean patients with advanced solid tumors, 2–240 mg/day",7 to 13 h
same,Safety and tolerability of multiple three-week administrations,"[1]; dose range 2–240 mg/day, Korean patients",safe and well-tolerated
same,Relationship of systemic exposure to dose,[1]; dose range 2–240 mg/day,dose-proportional
same,Enzyme primarily metabolizing the drug,cytochrome P450 3A4,cytochrome P450 3A4
same,Infections and infestations: number of events,[2],1
same,Infections and infestations: number of subjects (percentage of subjects),[2],1 (8.3)
same,Oral herpes: number of events,[2]; po,1
same,Oral herpes: number of subjects (percentage of subjects),[2]; po,1 (8.3)
same,Changes in vital signs or 12-lead ECGs,[3]; 80 mg single dose,No clinically significant changes
same,Serious AEs,"[3]; 80 mg single dose, all groups",No serious AEs were observed
same,Severity of TEAEs,"[3]; 80 mg single dose, except contact dermatitis (moderate) in one subject, fed state",mild
same,"Effect of plasma concentrations on QTcF and QTcB values, including changes from the baseline","[3]; 80 mg single dose, triplicate ECG subset",did not prolong
same,Safety and tolerability of a single dose,"[3]; 80 mg, fasted and fed states, healthy subjects",safe and well-tolerated
same,Blood bilirubin increased: number of events,[3]; [5],1
same,Chalazion: number of events,[3]; [5],1
same,Chalazion: number of subjects (percentage of subjects),[3]; [5],1 (8.3)
same,Eye disorders: number of events,[3]; [5],1
same,Eye disorders: number of subjects (percentage of subjects),[3]; [5],1 (8.3)
same,Gastrointestinal disorders: number of events,[3]; [5],1
same,Gastrointestinal disorders: number of subjects (percentage of subjects),[3]; [5],1 (8.3)
same,Hyperuricaemia: number of events,[3]; [5],1
same,Investigations: number of events,[3]; [5],1
same,Metabolism and nutrition disorders: number of events,[3]; [5],1
same,Metabolism and nutrition disorders: number of subjects (percentage of subjects),[3]; [5],1 (8.3)
same,Nausea: number of events,[3]; [5],1
same,Nausea: number of subjects (percentage of subjects),[3]; [5],1 (8.3)
same,Blood and lymphatic system disorders: number of events,"[3]; Caucasian, fed state (N = 12)",1
same,Blood and lymphatic system disorders: number of subjects (percentage of subjects),"[3]; Caucasian, fed state (N = 12)",1 (8.3)
same,Blood bilirubin increased: number of events,"[3]; Caucasian, fed state (N = 12)",1
same,Blood bilirubin increased: number of subjects (percentage of subjects),"[3]; Caucasian, fed state (N = 12)",1 (8.3)
same,Decreased appetite: number of events,"[3]; Caucasian, fed state (N = 12)",1
same,Decreased appetite: number of subjects (percentage of subjects),"[3]; Caucasian, fed state (N = 12)",1 (8.3)
same,Dermatitis contact: number of events,"[3]; Caucasian, fed state (N = 12)",1
same,Dermatitis contact: number of subjects (percentage of subjects),"[3]; Caucasian, fed state (N = 12)",1 (8.3)
same,Eosinophilia: number of events,"[3]; Caucasian, fed state (N = 12)",1
same,Eosinophilia: number of subjects (percentage of subjects),"[3]; Caucasian, fed state (N = 12)",1 (8.3)
same,Epigastric discomfort: number of events,"[3]; Caucasian, fed state (N = 12)",1
same,Epigastric discomfort: number of subjects (percentage of subjects),"[3]; Caucasian, fed state (N = 12)",1 (8.3)
same,Gastrointestinal disorders: number of events,"[3]; Caucasian, fed state (N = 12)",1
same,General disorders and administration site conditions: number of events,"[3]; Caucasian, fed state (N = 12)",1
same,General disorders and administration site conditions: number of subjects (percentage of subjects),"[3]; Caucasian, fed state (N = 12)",1 (8.3)
same,Headache: number of events,"[3]; Caucasian, fed state (N = 12)",1
same,Headache: number of subjects (percentage of subjects),"[3]; Caucasian, fed state (N = 12)",1 (8.3)
same,Hyperuricaemia: number of events,"[3]; Caucasian, fed state (N = 12)",1
same,Hyperuricaemia: number of subjects (percentage of subjects),"[3]; Caucasian, fed state (N = 12)",1 (8.3)
same,Investigations: number of events,"[3]; Caucasian, fed state (N = 12)",1
same,Investigations: number of subjects (percentage of subjects),"[3]; Caucasian, fed state (N = 12)",1 (8.3)
same,Lethargy: number of events,"[3]; Caucasian, fed state (N = 12)",1
same,Lethargy: number of subjects (percentage of subjects),"[3]; Caucasian, fed state (N = 12)",1 (8.3)
same,Metabolism and nutrition disorders: number of events,"[3]; Caucasian, fed state (N = 12)",2
same,Metabolism and nutrition disorders: number of subjects (percentage of subjects),"[3]; Caucasian, fed state (N = 12)",2 (16.7)
same,Nervous system disorders: number of events,"[3]; Caucasian, fed state (N = 12)",2
same,Nervous system disorders: number of subjects (percentage of subjects),"[3]; Caucasian, fed state (N = 12)",2 (16.7)
same,Skin and subcutaneous tissue disorders: number of events,"[3]; Caucasian, fed state (N = 12)",1
same,Skin and subcutaneous tissue disorders: number of subjects (percentage of subjects),"[3]; Caucasian, fed state (N = 12)",1 (8.3)
same,Thirst: number of events,"[3]; Caucasian, fed state (N = 12)",1
same,Thirst: number of subjects (percentage of subjects),"[3]; Caucasian, fed state (N = 12)",1 (8.3)
same,Total TEAEs: number of events,"[3]; Caucasian, fed state (N = 12)",9
same,Total TEAEs: number of subjects (percentage of subjects),"[3]; Caucasian, fed state (N = 12)",7 (58.3)
same,Decreased appetite: number of events,"[3]; Chinese, fasted state (N = 12)",1
same,Decreased appetite: number of subjects (percentage of subjects),"[3]; Chinese, fasted state (N = 12)",1 (8.3)
same,Dyspepsia: number of events,"[3]; Chinese, fasted state (N = 12)",1
same,Dyspepsia: number of subjects (percentage of subjects),"[3]; Chinese, fasted state (N = 12)",1 (8.3)
same,Gastrointestinal disorders: number of events,"[3]; Chinese, fasted state (N = 12)",1
same,Gastrointestinal disorders: number of subjects (percentage of subjects),"[3]; Chinese, fasted state (N = 12)",1 (8.3)
same,Hypertriglyceridaemia: number of events,"[3]; Chinese, fasted state (N = 12)",1
same,Hypertriglyceridaemia: number of subjects (percentage of subjects),"[3]; Chinese, fasted state (N = 12)",1 (8.3)
same,Metabolism and nutrition disorders: number of events,"[3]; Chinese, fasted state (N = 12)",2
same,Metabolism and nutrition disorders: number of subjects (percentage of subjects),"[3]; Chinese, fasted state (N = 12)",2 (16.7)
same,Abdominal pain: number of events,"[3]; Korean, fasted state (N = 12)",1
same,Abdominal pain: number of subjects (percentage of subjects),"[3]; Korean, fasted state (N = 12)",1 (8.3)
same,Dyspepsia: number of events,"[3]; Korean, fasted state (N = 12)",1
same,Dyspepsia: number of subjects (percentage of subjects),"[3]; Korean, fasted state (N = 12)",1 (8.3)
same,Gastrointestinal disorders: number of events,"[3]; Korean, fasted state (N = 12)",4
same,Gastrointestinal disorders: number of subjects (percentage of subjects),"[3]; Korean, fasted state (N = 12)",3 (25.0)
same,Gingival pain: number of events,"[3]; Korean, fasted state (N = 12)",1
same,Gingival pain: number of subjects (percentage of subjects),"[3]; Korean, fasted state (N = 12)",1 (8.3)
same,Nausea: number of events,"[3]; Korean, fasted state (N = 12)",1
same,Nausea: number of subjects (percentage of subjects),"[3]; Korean, fasted state (N = 12)",1 (8.3)
same,Decreased appetite: number of events,"[3]; Korean, fed state (N = 13)",3
same,Decreased appetite: number of subjects (percentage of subjects),"[3]; Korean, fed state (N = 13)",3 (23.1)
same,Dyspepsia: number of events,"[3]; Korean, fed state (N = 13)",2
same,Dyspepsia: number of subjects (percentage of subjects),"[3]; Korean, fed state (N = 13)",1 (7.7)
same,Eye disorders: number of events,"[3]; Korean, fed state (N = 13)",3
same,Eye disorders: number of subjects (percentage of subjects),"[3]; Korean, fed state (N = 13)",1 (7.7)
same,Eye pain: number of events,"[3]; Korean, fed state (N = 13)",1
same,Eye pain: number of subjects (percentage of subjects),"[3]; Korean, fed state (N = 13)",1 (7.7)
same,Gastrointestinal disorders: number of events,"[3]; Korean, fed state (N = 13)",7
same,Gastrointestinal disorders: number of subjects (percentage of subjects),"[3]; Korean, fed state (N = 13)",5 (38.5)
same,Hyperaemia: number of events,"[3]; Korean, fed state (N = 13)",1
same,Hyperaemia: number of subjects (percentage of subjects),"[3]; Korean, fed state (N = 13)",1 (7.7)
same,Lacrimation increased: number of events,"[3]; Korean, fed state (N = 13)",1
same,Lacrimation increased: number of subjects (percentage of subjects),"[3]; Korean, fed state (N = 13)",1 (7.7)
same,Metabolism and nutrition disorders: number of events,"[3]; Korean, fed state (N = 13)",3
same,Metabolism and nutrition disorders: number of subjects (percentage of subjects),"[3]; Korean, fed state (N = 13)",3 (23.1)
same,Musculoskeletal and connective tissue disorders: number of events,"[3]; Korean, fed state (N = 13)",1
same,Musculoskeletal and connective tissue disorders: number of subjects (percentage of subjects),"[3]; Korean, fed state (N = 13)",1 (7.7)
same,Nausea: number of events,"[3]; Korean, fed state (N = 13)",5
same,Nausea: number of subjects (percentage of subjects),"[3]; Korean, fed state (N = 13)",5 (38.5)
same,"Respiratory, thoracic, and mediastinal disorders: number of events","[3]; Korean, fed state (N = 13)",1
same,"Respiratory, thoracic, and mediastinal disorders: number of subjects (percentage of subjects)","[3]; Korean, fed state (N = 13)",1 (7.7)
same,Rhabdomyolysis: number of events,"[3]; Korean, fed state (N = 13)",1
same,Rhabdomyolysis: number of subjects (percentage of subjects),"[3]; Korean, fed state (N = 13)",1 (7.7)
same,Rhinorrhoea: number of events,"[3]; Korean, fed state (N = 13)",1
same,Rhinorrhoea: number of subjects (percentage of subjects),"[3]; Korean, fed state (N = 13)",1 (7.7)
same,Total TEAEs: number of events,"[3]; Korean, fed state (N = 13)",16
same,Total TEAEs: number of subjects (percentage of subjects),"[3]; Korean, fed state (N = 13)",6 (46.2)
same,Vascular disorders: number of events,"[3]; Korean, fed state (N = 13)",1
same,Vascular disorders: number of subjects (percentage of subjects),"[3]; Korean, fed state (N = 13)",1 (7.7)
same,Vision blurred: number of events,"[3]; Korean, fed state (N = 13)",1
same,Vision blurred: number of subjects (percentage of subjects),"[3]; Korean, fed state (N = 13)",1 (7.7)
same,TEAEs: number of events,"[3]; fasted state, 80 mg",nine
same,TEAEs: number of subjects,"[3]; fasted state, 80 mg",seven
same,TEAEs: number of events,"[3]; fed state, 80 mg",25
same,TEAEs: number of subjects,"[3]; fed state, 80 mg",13
same,"Antitumor potency, fold higher than that of olaparib",[4],40–440 fold
same,IC50 compared with those of olaparib,PARP3,higher
